Data: patent US4643989A, “Inhibition of aldosterone secretion” (The Salk Institute for Biological Studies, priority 1984, dated 1987)
Bridges are numbered along the chain shown (N, C = ends).

Legend:
[1] = tested on: rat adrenoglomerulosa cells; assay: Basal secretion of aldosterone by rat glomerulosa cells (radioimmunoassay); assay type: cell-based; details: for testing as set forth in Example II (inhibition of aldosterone secretion by rat glomerulosa cells): compared with rANF(8-33) results of Example II
Description: (§1) Rat adrenoglomerulosa cells are obtained by enzymatic digest of adrenals harvested from peripubertal male Sprague Dawley rats(Holtzman, 125 g) using previously described methods, and testing is carried out to determine the effect of synthetic rANF(8-33) on the basal secretion of aldosterone by rat glomerulosa cells. Rat glomerulosa cells are prepared by enzymatic digestion of 20 rat adrenals after ennucleation. The cells remaining on the capsule are digested for 30 minutes with a mixture of collagenase and DNase (4 mg/ml, 4 μg/ml). Dispersed cells are filtered through gauze and centrifuged at 800 rpm for 15 minutes. The pellet is resuspended in M199 buffer containing 0.1% bovine serum albumin(BSA), and the cells are centrifuged at 800 rpm for 15 minutes. The cell pellet is again resuspended in M199-0.1% BSA buffer and distributed in 900-μl aliquots to 12×75 plastic tubes. The samples are preincubated for 90 minutes in a 37° C. waterbath under an atmosphere of 5% CO2 -95% O2. Aliquots of the test samples are added in a 100 μl volume and incubated for 4 hours. Aldosterone and corticosterone are measured by radioimmunoassay using antisera purchased from Endocrine Sciences, Oxnard, Calif. and [^3 H]-labelled steroid from New England Nuclear, Boston, Mass. Results are the mean±SEM of 7 replicates. Statistical analysis is performed by analysis of variance, and all points are significant (p<0.01) from control. In concentrations as low as ≤10^-9 M, there is a significant (p<0.01) inhibition of aldosterone synthesis that is even more accentuated when the higher concentrations are tested (p<0.001).

rat glomerulosa cells [2] = assay: AN-II-stimulated aldosterone secretion by rat glomerulosa cells; assay type: cell-based; details: equimolar amounts of AN-II and peptide; p<0.001 versus secretagogue alone
Description: as §1, with “Aliquots of the test samples are added in a 100 μl volume and incubated for 4 hours.” left out, “Results are the mean±SEM of 7 replicates. Statistical analysis is performed by analysis of variance, and all points are significant (p<0.01) from control. In concentrations as low as ≤10^-9 M, there is a significant (p<0.01) inhibition of aldosterone synthesis that is even more accentuated when the higher concentrations are tested (p<0.001).” left out
(§2) Similar inhibitory effects on aldosterone formation are obtained when its secretion by the glomerulosa cells in vitro is stimulated with either ACTH or AN-II. […] Aldosterone secretion is measured as above by radioimmunoassay. […]

rat glomerulosa cells [3] = assay: ACTH-stimulated aldosterone secretion by rat glomerulosa cells; assay type: cell-based; details: equimolar amounts of ACTH and peptide; p<0.001 versus secretagogue alone
Description: as §1, with “Aliquots of the test samples are added in a 100 μl volume and incubated for 4 hours.” left out, “Results are the mean±SEM of 7 replicates. Statistical analysis is performed by analysis of variance, and all points are significant (p<0.01) from control. In concentrations as low as ≤10^-9 M, there is a significant (p<0.01) inhibition of aldosterone synthesis that is even more accentuated when the higher concentrations are tested (p<0.001).” left out
as §2

rat glomerulosa cells [4] = assay: Corticosterone formation by rat glomerulosa cells (radioimmunoassay); assay type: cell-based; details: 10^-7 M peptide
Description: as §1
In other experiments, ANF(8-33) had no effect on pituitary ACTH secretion.

pituitary ACTH secretion = assay: Pituitary ACTH secretion; details: other experiments

H-Arg-Arg-Ser-Ser-Cys-Phe-Gly-Gly-Arg-Met-Asp-Arg-Ile-Gly-Ala-Gln-Ser-Gly- Leu-Gly-Cys-Asn-Ser-Phe-Tyr-OH (H-RRSSCFGGRMDRIGAQSGLGCNSFY-OH; disulfide 5-21; ends not checked) [hANF(8-33)]
testing as set forth in Example II (inhibition of aldosterone secretion by rat glomerulosa cells) [1]: comparable results

rANF(3-33)--NH2: C-terminal amide of rat ANF fragment 3-33
testing as set forth in Example II (inhibition of aldosterone secretion by rat glomerulosa cells) [1]: comparable results

rANF(5-33): rat ANF fragment 5-33
testing as set forth in Example II (inhibition of aldosterone secretion by rat glomerulosa cells) [1]: comparable results

rANF(8-30): rat ANF fragment 8-30
testing as set forth in Example II (inhibition of aldosterone secretion by rat glomerulosa cells) [1]: comparable results

rANF(8-32)--NH2: C-terminal amide of rat ANF fragment 8-32
testing as set forth in Example II (inhibition of aldosterone secretion by rat glomerulosa cells) [1]: comparable results

rANF(8-33): 26-residue fragment of rat atrial natriuretic factor with disulfide bond between the Cys residues
inhibition of AN-II-stimulated aldosterone secretion (rat glomerulosa cells [2]): significant inhibition of aldosterone secretion | inhibition of ACTH-stimulated aldosterone secretion (rat glomerulosa cells [3]): significant inhibition of aldosterone secretion | basal corticosterone formation (rat glomerulosa cells [4]; decrease from 24.7±0.8 ng/ml without peptide): 7.8 ± 0.3 ng/mL | AN-II-stimulated corticosterone formation (rat glomerulosa cells [4]; decrease from 37.2±1.4 ng/ml without peptide, p<0.001): 21.9 ± 0.9 ng/mL | ACTH-stimulated corticosterone formation (rat glomerulosa cells [4]; decrease from 43.4±0.7 ng/ml without peptide, p<0.001): 36.1 ± 0.7 ng/mL | effect on pituitary ACTH secretion (pituitary ACTH secretion): no effect | stimulation of aldosterone [1]: at no point was rANF(8-33) observed to stimulate aldosterone | concentration giving significant inhibition of aldosterone synthesis (basal secretion) ([1]; basal, 4 hours incubation, p<0.01 versus control, more accentuated at higher concentrations (p<0.001)): ≤ 10^-9 M
